Data set [1] in a line: Aqueous solubility in buffer vs acetonitrile/water (1/1), LC-UV. The settings on record: kinetic from dmso stock, buffer pH 2.2, 24 h shaking, 2.5% DMSO. Format: physicochemical. On the procedure:
The aqueous solubility of the compounds of the invention is determined by comparing the amount dissolved in buffer to the amount in an acetonitrile/water (1/1) solution. Starting from a 10 mM DMSO stock solution aliquots are diluted with acetonitrile/water (1/1) or buffer, respectively. After 24 h of shaking, the solutions are filtrated and analyzed by LC-UV. The amount dissolved in buffer is compared to the amount in the acetonitrile solution.
Solubility is usually being measured from 0.001 to 0.125 mg/mL at a DMSO concentration of 2.5%. If more than 90% of the compound is dissolved in buffer, the value is marked with “>”.

Data set [2] has as its target T1, cytochrome P450 2C9-isoenzyme (Homo sapiens, UniProt P11712).
T1 construct: from tissue; host or cells: human liver microsomes
Kind of data set: Inhibition of CYP-2C9 (hydroxylation of diclofenac, human liver microsomes). The format is in vitro ADME. The note with it: CYP-2C9, human liver microsomes, diclofenac 10 μM, 37° C. The protocol:
The inhibition of cytochrome P450 2C9-isoenzyme catalyzed hydroxylation of diclofenac by the test compound is assayed at 37° C. with human liver microsomes. All assays are carried out on a robotic system in 96 well plates. The final incubation volume contains TRIS buffer (0.1 M), MgCl2 (5 mM), human liver microsomes (0.1 mg/mL), diclofenac (10 μM) and the test compound at five different concentrations or no compound (high control) in duplicate (e.g., highest concentration 10-50 μM with subsequent serial 1:4 dilutions). Following a short preincubation period, reactions are started with the cofactor (NADPH, 1 mM) and stopped by cooling the incubation down to 8° C. and subsequently by addition of one volume of acetonitrile. An internal standard solution—the stable isotope ^13C6-hydroxydiclofenac—is added after quenching of incubations. Peak area analyte (=metabolite formed) and internal standard is determined by LC-MS/MS. The resulting peak area ratio analyte to internal standard in these incubations is compared to a control activity containing no test compound. Within each of the assay runs, the IC50 of a positive control inhibitor (sulfaphenazole) is determined. Experimental IC50 values are calculated by least square regression according to the following equation: % control activity=(100% control activity/(1+(I/IC50)S))−B with I=inhibitor concentration; S=slope factor; B=background activity (lower plateau of the inhibition curve)
(§1) If the inhibition of the reaction is already >50% at the lowest concentration of the test compound, the IC50 is assigned “<lowest concentration tested” (usually <0.4 μM). If the inhibition of the reaction is still <50% at the highest concentration of the test compound, the IC50 is assigned “>highest concentration tested” (usually >50 μM).
(Microsomes from liver hold many membrane-bound enzymes, among them those of drug oxidation.)

Data set [3] addresses human GPR40 receptor (Homo sapiens, UniProt O14842). Nature of the data set: IP1 accumulation measurements using the IPOne assay system (1321N1 cells stably expressing human GPR40 receptor). Format: cell-based. The note with it: 1321N1 cells expressing human GPR40, 1 h stimulation at 37° C. The protocol:
IP1 accumulation measurements using the IPOne assay system—1321N1 cells stably expressing human GPR40 receptor (Euroscreen, Belgium) are seeded 24 h before the assay in white 384-well plates in culture medium containing 10% FCS, 1% Na-Pyruvate and 400 μg/mL G418. IP1 is assayed according to the manufacturer's description (Cisbio Bioassays, France). In brief, the assay is started by substitution of the culture medium by stimulation buffer (Hepes 10 mM, CaCl2 1 mM, MgCl2 0.5 mM, KCl 4.2 mM, NaCl 146 mM, glucose 5.5 mM and LiCl 50 mM, pH 7.4). Cells are stimulated for 1 h at 37° C., 5% CO2 by addition of the compounds that are diluted in stimulation buffer containing LiCl. Assays are stopped by adding HTRF-conjugates (IP1-d2 and Anti-IP1 cryptate Tb) and lysis buffer, provided by the manufacturer. After an incubation time of 1 h at room temperature plates are measured using an EnVision™, Perkin Elmer. The obtained fluorescence ratios at 665/615 […] are then used to calculate the pEC50 values using Assay Explorer 3.3 Software (Accelrys, Inc.) by interpolation using an IP1 reference curve and subsequent sigmoidal curve fitting allowing for a variable hill slope.

The target in data set [4] is T2, cytochrome P450 2C8-isoenzyme (Homo sapiens, UniProt P10632).
T2 construct: from tissue; host or cells: human liver microsomes
T2 sequence (P10632 1-490): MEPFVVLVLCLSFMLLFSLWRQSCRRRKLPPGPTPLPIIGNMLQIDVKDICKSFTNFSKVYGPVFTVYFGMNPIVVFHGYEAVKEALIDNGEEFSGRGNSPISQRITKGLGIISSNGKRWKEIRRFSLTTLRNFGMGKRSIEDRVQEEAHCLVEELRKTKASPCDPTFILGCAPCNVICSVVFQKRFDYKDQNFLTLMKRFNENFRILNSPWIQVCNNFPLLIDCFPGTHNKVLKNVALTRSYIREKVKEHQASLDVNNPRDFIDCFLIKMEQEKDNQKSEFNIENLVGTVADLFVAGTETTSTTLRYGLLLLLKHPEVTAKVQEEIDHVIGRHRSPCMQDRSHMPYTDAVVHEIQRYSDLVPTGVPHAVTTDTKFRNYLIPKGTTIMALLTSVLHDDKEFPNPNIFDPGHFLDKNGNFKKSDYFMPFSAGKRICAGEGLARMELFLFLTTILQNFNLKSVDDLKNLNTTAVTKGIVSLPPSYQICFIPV
Nature of the data set: Inhibition of CYP-2C8 (deethylation of amodiaquine, human liver microsomes). The format is in vitro ADME. The settings on record: CYP-2C8, human liver microsomes, amodiaquine 1 μM, 37° C. On the procedure: The inhibition of cytochrome P450 2C8-isoenzyme catalyzed deethylation of amodiaquine by the test compound is assayed at 37° C. with human liver microsomes. All assays are carried out on a robotic system in 96 well plates. The final incubation volume contains TRIS buffer (0.1 M), MgCl2 (5 mM), human liver microsomes (0.05 mg/mL), amodiaquine (1 μM) and the test compound at five different concentrations or no compound (high control) in duplicate (e.g. highest concentration 10-50 μM with subsequent serial 1:4 dilutions). Following a short preincubation period, reactions are started with the cofactor (NADPH, 1 mM) and stopped by cooling the incubation down to 8° C. and subsequently by addition of one volume of acetonitrile. An internal standard solution—the stable isotope d5-desethylamodiaquine—is added after quenching of incubations. Peak area analyte (=metabolite formed) and internal standard is determined by LC-MS/MS. The resulting peak area ratio analyte to internal standard in these incubations is compared to a control activity containing no test compound. Within each of the assay runs, the IC50 of a positive control inhibitor (Montelukast) is determined. Experimental IC50 values are calculated by least square regression according to the following equation: % control activity=(100% control activity/(1+(I/IC50)S))−B with I=inhibitor concentration; S=slope factor; B=background activity (lower plateau of the inhibition curve)
as §1

A word on the solubility: it is how much of the substance goes into solution per volume. The low end stands for a poorly soluble substance, the high end for a readily soluble substance. As a reminder, the IC50 is the point on the concentration scale where inhibition reaches its midpoint. By EC50 is commonly meant the concentration giving half of the maximal effect. A high value points to weaker potency.

Converted amounts (≈) assume the structure as drawn.

Sequence of human GPR40 receptor (O14842 whole entry): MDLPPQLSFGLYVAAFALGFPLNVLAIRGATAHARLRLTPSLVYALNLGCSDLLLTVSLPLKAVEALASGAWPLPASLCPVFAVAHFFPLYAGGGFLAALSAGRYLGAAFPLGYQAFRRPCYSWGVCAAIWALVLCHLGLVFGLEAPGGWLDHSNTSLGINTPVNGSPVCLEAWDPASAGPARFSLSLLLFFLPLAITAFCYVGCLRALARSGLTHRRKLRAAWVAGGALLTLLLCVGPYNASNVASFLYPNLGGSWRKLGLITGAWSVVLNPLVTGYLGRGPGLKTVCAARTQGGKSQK
T1 sequence (P11712 whole entry): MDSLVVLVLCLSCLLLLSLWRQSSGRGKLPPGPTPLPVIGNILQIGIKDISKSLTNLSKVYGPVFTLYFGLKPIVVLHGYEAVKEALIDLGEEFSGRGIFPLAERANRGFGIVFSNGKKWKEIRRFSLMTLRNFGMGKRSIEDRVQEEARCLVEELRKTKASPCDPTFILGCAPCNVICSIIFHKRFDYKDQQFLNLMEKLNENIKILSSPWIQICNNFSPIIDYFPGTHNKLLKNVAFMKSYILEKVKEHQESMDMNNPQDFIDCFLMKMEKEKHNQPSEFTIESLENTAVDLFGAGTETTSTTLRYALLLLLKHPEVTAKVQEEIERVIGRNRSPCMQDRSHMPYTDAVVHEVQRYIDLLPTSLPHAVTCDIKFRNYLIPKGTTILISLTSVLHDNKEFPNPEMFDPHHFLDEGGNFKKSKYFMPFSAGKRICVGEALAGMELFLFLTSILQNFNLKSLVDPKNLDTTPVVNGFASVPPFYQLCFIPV

The molecule `Cc1cc(OCC2(C)COC2)cc(C)c1-c1ccc(F)c2c1CC[C@H]2Nc1ccc([C@H]2C[C@@H]2C(=O)O)cn1` [Example 33] returned a solubility at 24 h in data set [1] of 103 µg/mL (≈ 199 µM). In addition, the IC50 in data set [2] was over 50 µM; in data set [4], 26 µM. This molecule came in with an EC50 in data set [3] of 0.014 µM.
As to `Cc1cc(OCC(=O)O)cc(C)c1-c1ccc(F)c2c1CC[C@H]2Nc1ccc([C@H]2C[C@@H]2C(=O)O)cn1` [Example 34], the solubility at 24 h in data set [1] came out at 73 µg/mL (≈ 149 µM). Besides, the IC50 in data set [2] and in data set [4] was over 50 µM in each case. In data set [3], this molecule gave an EC50 of 4.13 µM.
In turn, `Cc1cc(-c2ccc(=O)n(C)c2)cc(C)c1-c1ccc(F)c2c1CC[C@H]2Nc1ccc([C@H]2C[C@@H]2C(=O)O)cn1` [Example 37] returned a solubility at 24 h in data set [1] of 113 µg/mL (≈ 216 µM). Further, the IC50 was over 50 µM in data set [2] and 17 µM in data set [4]. Besides, in data set [3], a half-maximal response (EC50) required 0.011 µM.
On the same counts, the results for `N#Cc1cccc(C#N)c1-c1ccc(F)c2c1CC[C@H]2Nc1ccc([C@H]2C[C@@H]2C(=O)O)cn1` [Example 44] are over 158 µg/mL, over 50 µM, over 50 µM and 4.13 µM.
The corresponding values for `Cc1cc(-c2cc(=O)n(C)cn2)cc(C)c1-c1ccc(F)c2c1CC[C@H]2Nc1ccc([C@H]2C[C@@H]2C(=O)O)cn1` [Example 45] are 86 µg/mL (≈ 164 µM), over 50 µM, 24 µM and 0.005 µM.
Turning to `COc1cc(OC)c(-c2ccc(F)c3c2CC[C@H]3Nc2ccc([C@H]3C[C@@H]3C(=O)O)cn2)c(OC)c1` [Example 48], in data set [1], the solubility at 24 h is over 107 µg/mL. In addition, the IC50 in data set [2] and in data set [4] was over 50 µM each time. Further, in data set [3], the response was half-maximal at 0.427 µM (EC50).
Molecule `Cc1ccc(Cl)c(-c2ccc(F)c3c2CC[C@H]3Nc2ccc([C@H]3C[C@@H]3C(=O)O)cn2)c1Cl` [Example 51] came in with a solubility at 24 h in data set [1] of 56 µg/mL (≈ 119 µM). In addition, the IC50 is 17 µM in data set [2] and 12 µM in data set [4]. The same molecule returned a concentration for a half-maximal effect (EC50) in data set [3] of 0.007 µM.
On the same counts, the results for `COc1cc(OC)c(Cl)c(-c2ccc(F)c3c2CC[C@H]3Nc2ccc([C@H]3C[C@@H]3C(=O)O)cn2)c1Cl` [Example 53] are 76 µg/mL (≈ 147 µM), 14 µM, 11 µM and 0.013 µM.
In data set [1], `O=C(O)[C@H]1C[C@@H]1c1ccc(N[C@@H]2CCc3c(-c4c(F)cccc4F)ccc(F)c32)nc1` [Example 55] yielded a solubility at 24 h of 73 µg/mL (≈ 172 µM). The IC50 in data set [2] and in data set [4] was over 50 µM each time. Further, the EC50 in data set [3] came out at 0.208 µM.
Consider `COc1cc(OC)c(F)c(-c2ccc(F)c3c2CC[C@H]3Nc2ccc([C@H]3C[C@@H]3C(=O)O)cn2)c1F` [Example 57], for which the concentration in solution in data set [1] (solubility at 24 h) was 99 µg/mL (≈ 204 µM). Also, the values for the IC50 in data set [2] and in data set [4] were 48 µM and 19 µM, respectively. Further, the EC50 in data set [3] stood at 0.107 µM.
On the same counts, the results for `O=C(O)[C@H]1C[C@@H]1c1ccc(N[C@@H]2CCc3c(-c4c(F)cc(OC5CC5)cc4F)ccc(F)c32)nc1` [Example 60] are 68 µg/mL (≈ 142 µM), 9 µM, 25 µM and 0.061 µM.
The corresponding values for `Cc1cc(OCC2CCOCC2)cc(C)c1-c1ccc(F)c2c1CC[C@H]2Nc1ccc([C@H]2C[C@@H]2C(=O)O)cn1` [Example 61] are 90 µg/mL (≈ 170 µM), 33 µM, 15 µM and 0.005 µM.
The corresponding values for `Cc1cc(-c2ccn(C)c(=O)n2)cc(C)c1-c1ccc(F)c2c1CC[C@H]2Nc1ccc([C@H]2C[C@@H]2C(=O)O)cn1` [Example 71] are 121 µg/mL (≈ 231 µM), over 50 µM, 18 µM and 0.006 µM.
For `Cc1cc(OCC2(O)CCSCC2)cc(C)c1-c1ccc(F)c2c1CC[C@H]2Nc1ccc([C@H]2C[C@@H]2C(=O)O)cn1` [Example 73], the concentration in solution in data set [1] (solubility at 24 h) was 89 µg/mL (≈ 158 µM). For the same molecule, the results for the IC50 in data set [2] and in data set [4] were 45 µM and 20 µM, respectively. The EC50 in data set [3] stood at 0.017 µM.
`COc1c(F)c(F)c(-c2ccc(F)c3c2CC[C@H]3Nc2ccc([C@H]3C[C@@H]3C(=O)O)cn2)c(F)c1F` [Example 76] registered a solubility at 24 h in data set [1] of 104 µg/mL (≈ 212 µM). Moreover, the IC50 in data set [2] is 40 µM; in data set [4], 30 µM. In data set [3], this molecule gave an EC50 of 0.003 µM.

For the origin of these results see US9617251B2, “Indanylaminopyridylcyclopropanecarboxylic acids, pharmaceutical compositions and uses thereof” (BOEHRINGER INGELHEIM INTERNATIONAL GMBH, priority 2015, dated 2017).
